Results as given in patent US20230233736A1, “ANTIMICROBIAL FORMULATIONS COMPRISING SILICONE” (AMICOAT AS, priority 2020, published 2023).
Converted amounts (≈) assume the structure as drawn.

Tests used:
[1] = tested on: Candida tropicalis; experiment: MIC microbroth dilution (CLSI); assay type: cell-based; details: ATCC750 - reference strain
[2] = tested on: Trichophyton mentagrophytes; experiment: MIC microbroth dilution (CLSI); assay type: cell-based; details: G.R. Micro collection
[3] = tested on: Cryptococcus neoformans; experiment: MIC microbroth dilution (CLSI); assay type: cell-based; details: G.R. Micro collection
[4] = tested on: Enterococcus gallinarum; experiment: MIC microbroth dilution (CLSI); assay type: cell-based; details: vancomycin-resistant (VanC) clinical isolate
From the text: (§1) Cation-adjusted Mueller-Hinton broth (Oxoid Ltd., Basingstoke, UK and Trek Diagnostic Systems Ltd., East Grinstead, UK) (supplemented with 5% laked horse blood for Streptococcus spp., Corynebacterium jeikeium and Listeria monocytogenes) was used for aerobic bacteria, with an initial inoculum of approximately 10^5 colony-forming units (CFU)/m L.

[5] = tested on: Staphylococcus saprophyticus; experiment: MIC microbroth dilution (CLSI); assay type: cell-based; details: antibiotic susceptible clinical isolate
From the text: as §1

[6] = tested on: Enterococcus faecalis; assay type: cell-based; details: vancomycin-resistant (VanB) clinical isolate
From the text: as §1
(§2) To evaluate whether freezing affected the activity of the peptides some MIC determinations were repeated using plates containing freshly-prepared Mueller-Hinton broth.

[7] = tested on: Corynebacterium jeikeium; assay type: cell-based
From the text: as §1

[8] = tested on: Staphylococcus epidermidis; assay type: cell-based
From the text: as §1

[9] = tested on: Staphylococcus haemolyticus; assay type: cell-based
From the text: as §1

[10] = tested on: C. albicans; experiment: Antimicrobial assay, Table 5; assay type: cell-based
[11] = tested on: S. pyogenes; experiment: Antimicrobial assay, Table 5; assay type: cell-based
[12] = tested on: E. coli; experiment: Antimicrobial assay, Table 5; assay type: cell-based
[13] = tested on: P. aeruginosa; experiment: Antimicrobial assay, Table 5; assay type: cell-based
[14] = tested on: Staphylococcus aureus FDA486; experiment: Murine skin infection model, topical treatment; assay type: in vivo, mice
Description: (§3) The skin of mice was infected with Staphylococcus aureus or Streptococcus pyogenes and subsequently given a total of three treatments at three hourly intervals. Three hours after the last treatment, skin biopsies were collected and the number of colony forming units (CFUs) present in the skin sample was determined. Results are shown in FIGS. 1 and 2, expressed as the number of colony forming units per mouse.
In experiment 1 (FIG. 1), compound 2 was applied to the murine skin as part of either a cream or a gel containing 2% (w/w) of compound 2. The same cream or gel without compound 2 was used as a negative control (placebo).
as §3, with “3, 4” for “1”, “5” for “2,”
In experiment 1 (FIG. 3), compound 7 was applied to the murine skin as part of either a cream or a gel containing 2% (w/w) of compound 7. The same cream or gel without compound 7 was used as a negative control (placebo). Bactroban 2% cream was used as a positive control.
In experiment 3 (FIG. 5), compound 8 was applied in a 2% cream formulation on a Staphylococcus aureus FDA 486 infection in the murine skin infection model. A placebo cream and two known antibacterials, “Fucidin (fucidic acid) ointment 2%” and “Bactroban (mupericin) cream 2%” were used as controls.

[15] = tested on: Streptococcus pyogenes; experiment: Murine skin infection model, topical treatment; assay type: in vivo, mice; details: FIG. 4, Streptococcus pyogenes CS 301
Description: as §3
In experiment 2 (FIG. 2), compound 2 was applied in two different concentrations, as either a 1% or a 2% gel. A placebo gel and a known antibacterial “bactroban” were used as controls.
as §3, with “3, 4” for “1”, “5” for “2,”
In experiment 2 (FIG. 4), compound 7 was applied in two different concentrations, as either a 1% or a 2% gel. A placebo gel and a known antibacterial “bactroban (mupericin)” were used as controls.

[16] = tested on: Candida (Issatchenkia) krusei
[17] = tested on: Clostridium perfringens; details: antibiotic-susceptible clinical isolate
[18] = tested on: Staphylococcus aureus, strain ATCC 25923; details: Table 5; strain ATCC 25923
[19] = tested on: Methicillin resistant Staphylococcus aureus (MRSA) strain ATCC 33591; details: Table 5; strain ATCC 33591
[20] = tested on: Methicillin resistant Staphylococcus epidermidis (MRSE) strain ATCC 27626; details: Table 5; strain ATCC 27626
[21] = tested on: Aspergillus niger; experiment: MIC microbroth dilution (CLSI); assay type: cell-based; details: G.R. Micro collection
[22] = tested on: Trichophyton interdigitale; experiment: MIC microbroth dilution (CLSI); assay type: cell-based; details: G.R. Micro collection
[23] = tested on: Microsporum canis; experiment: MIC microbroth dilution (CLSI); assay type: cell-based; details: G.R. Micro collection
[24] = tested on: Listeria monocytogenes; experiment: MIC microbroth dilution (CLSI); assay type: cell-based; details: antibiotic-susceptible clinical isolate
From the text: as §1

[25] = tested on: Salmonella sp; experiment: MIC microbroth dilution (CLSI); assay type: cell-based
From the text: as §1

[26] = tested on: Shigella sp; experiment: MIC microbroth dilution (CLSI); assay type: cell-based; details: antibiotic-susceptible clinical isolate
From the text: as §1

[27] = tested on: Stenotrophomonas maltophilia; experiment: MIC microbroth dilution (CLSI); assay type: cell-based; details: antibiotic-susceptible clinical isolate
From the text: as §1

[28] = tested on: Staphylococcus aureus; assay type: cell-based
From the text: as §1, §2

[29] = tested on: Enterobacter sp; assay type: cell-based
From the text: as §1

[30] = tested on: Enterococcus faecium; assay type: cell-based
From the text: as §1

[31] = tested on: Group G Streptococcus; assay type: cell-based
From the text: as §1

[32] = tested on: Klebsiella aerogenes; assay type: cell-based
From the text: as §1

[33] = tested on: Morganella morganii; assay type: cell-based
From the text: as §1

[34] = tested on: Streptococcus agalactiae; assay type: cell-based
From the text: as §1

[35] = tested on: Streptococcus pyogenes; assay type: cell-based
From the text: as §1

[36] = tested on: Propionibacterium acnes; experiment: MIC microbroth dilution (CLSI); assay type: cell-based
Description: Supplemented Brucella broth (SBB) was used for the anaerobic strains with an inoculum of approximately 10^6 CFU/mL. SBB is a broth consisting of 1% peptone, 0.5% ‘Lab-lemco’, 1% glucose and 0.5% sodium chloride supplemented with 5 μg/L haemin and 1 μg/L vitamin K (both obtained from Sigma Aldrich Ltd.) Yeast and filamentous fungal MIC were performed in MOPS buffered RPMI 1640 medium (MOPS buffer obtained from Sigma Aldrich Ltd., RPMI 1640 obtained from Invitrogen Ltd, Paisley, Scotland). The yeast inocula were in the range 7.5×10^2-4×10^3 CFU/mL and the filamentous fungi approximately 8×10^3-1×10^5 CFU/mL
MICs were determined as described in Example 2.

[37] = tested on: Candida parapsilosis
[38] = antibiotic-susceptible clinical isolate

Which MIC [1] does the source give for CC(C)NC(=O)[C@H](CCCNC(=N)N)NC(=O)[C@H](Cc1c(C(C)(C)C)[nH]c2c(C(C)(C)C)cc(C(C)(C)C)cc12)NC(=O)[C@@H](N)CCCNC(=N)N [Compound 7] here?
Its MIC is 4 µg/mL (≈ 5.51 µM).

What about the MIC [2] of the same compound?
The MIC was 8 µg/mL (≈ 11 µM).

What about the MIC [3] of the same compound?
The MIC was 8 µg/mL (≈ 11 µM).

What about the MIC [4] of the same compound?
Its MIC is 8 µg/mL (≈ 11 µM).

What about the MIC [5] of the same compound?
Its MIC is 2 µg/mL (≈ 2.75 µM).

And the MIC [6]?
Its MIC is at least 128 µg/mL.

And the MIC [7]?
The MIC was 8 µg/mL (≈ 11 µM).

And the MIC [8]?
The MIC was 4 µg/mL (≈ 5.51 µM).

And the MIC [9]?
The MIC was 4 µg/mL (≈ 5.51 µM).

And the C. albicans [10]?
The C. albicans was 25 mg/L.

And the S. pyogenes [11]?
Its S. pyogenes is under 2 mg/L.

What about the E. coli [12] of the same compound?
Its E. coli is 7 mg/L.

What about the P. aeruginosa [13] of the same compound?
The P. aeruginosa was 7 mg/L.

What about the “number of colony forming units (CFU) in skin biopsy” value (“number of colony forming units” for short) ([14]; FIG. 3, cream or gel 2% (w/w), three treatments, compared to placebo) of the same compound?
Its value is “number of CFUs was reduced”.

And the “number of CFUs, 2% gel compared with 1% gel” value [15]?
Its value is “more effective than the gel containing only 1% of compound 7”.

And the “number of colony forming units” value ([15]; 1% or 2% gel)?
Its value is “more effective at reducing the number of CFUs from a Streptococcus pyogenes CS 301 infection than the placebo gel or the bactroban”.

And the MIC [16]?
Its MIC is 8 µg/mL (≈ 11 µM).

And the MIC [17]?
The MIC was at least 128 µg/mL.

What about the S. aureus [18] of the same compound?
Its S. aureus is under 2 mg/L.

And the MRSA [19]?
Its MRSA is under 2 mg/L.

And the MRSE [20]?
The MRSE was under 2 mg/L.

With CCCCCCNC(=O)[C@H](CCCNC(=N)N)NC(=O)[C@H](Cc1c(C(C)(C)C)[nH]c2c(C(C)(C)C)cc(C(C)(C)C)cc12)NC(=O)[C@@H](N)CCCNC(=N)N [Compound 8] as the compound, how does the MIC [1] read?
Its MIC is 4 µg/mL (≈ 5.21 µM).

What about the MIC [21] of the same compound?
Its MIC is 4 µg/mL (≈ 5.21 µM).

And the MIC [2]?
The MIC was 4 µg/mL (≈ 5.21 µM).

What about the MIC [22] of the same compound?
The MIC was 4 µg/mL (≈ 5.21 µM).

What about the MIC [23] of the same compound?
Its MIC is 4 µg/mL (≈ 5.21 µM).

What about the MIC [3] of the same compound?
Its MIC is 2 µg/mL (≈ 2.6 µM).

And the MIC [4]?
The MIC was 4 µg/mL (≈ 5.21 µM).

And the MIC [24]?
Its MIC is 8 µg/mL (≈ 10.4 µM).

And the MIC [25, 38]?
The MIC was 8 µg/mL (≈ 10.4 µM).

What about the MIC ([25]; multi-drug resistant clinical isolate) of the same compound?
The MIC was 8 µg/mL (≈ 10.4 µM).

What about the MIC [26] of the same compound?
Its MIC is 4 µg/mL (≈ 5.21 µM).

What about the MIC [5] of the same compound?
The MIC was 0.5 µg/mL (≈ 0.651 µM).

And the MIC [27]?
The MIC was 4 µg/mL (≈ 5.21 µM).

What about the MIC [28] of the same compound?
The MIC was 4 µg/mL (≈ 5.21 µM).

What about the MIC [29] of the same compound?
Its MIC is 8 µg/mL (≈ 10.4 µM).

And the MIC [30]?
Its MIC is 4 µg/mL (≈ 5.21 µM).

And the MIC [31]?
The MIC was 8 µg/mL (≈ 10.4 µM).

What about the MIC [32] of the same compound?
The MIC was 8 µg/mL (≈ 10.4 µM).

What about the MIC [33] of the same compound?
Its MIC is 8 µg/mL (≈ 10.4 µM).

What about the MIC [9] of the same compound?
The MIC was 4 µg/mL (≈ 5.21 µM).

And the MIC [34]?
The MIC was 8 µg/mL (≈ 10.4 µM).

What about the MIC [35] of the same compound?
Its MIC is 8 µg/mL (≈ 10.4 µM).

And the MIC ([36]; antibiotic-resistant clinical isolate)?
Its MIC is 2 µg/mL (≈ 2.6 µM).

And the MIC [36, 38]?
Its MIC is 4 µg/mL (≈ 5.21 µM).

And the C. albicans [10]?
The C. albicans was 5 mg/L.

And the S. pyogenes [11]?
The S. pyogenes was 2 mg/L.

What about the E. coli [12] of the same compound?
The E. coli was 5 mg/L.

What about the P. aeruginosa [13] of the same compound?
The P. aeruginosa was 5 mg/L.

And the “number of colony forming units” value ([14]; FIG. 5, 2% cream formulation)?
Its value is “more effective at reducing the number of CFUs than the placebo and fucidin or bactroban”.

What about the MIC [37] of the same compound?
Its MIC is 8 µg/mL (≈ 10.4 µM).

And the S. aureus [18]?
The S. aureus was 2 mg/L.

What about the MRSA [19] of the same compound?
Its MRSA is 2 mg/L.

And the MRSE [20]?
The MRSE was under 1 mg/L.
